Results on seven compounds are retold here after paper PMC3878918, “Cathepsin K inhibitors increase distal femoral bone mineral density in rapidly growing rabbits” (BMC Musculoskeletal Disorders, 2013).

One may read the IC50 as the concentration that inhibits the measured activity by half. By Cmax is commonly meant the peak of the concentration-time curve.

For one data set, the system named is rabbit CatK. The following applies: 2 μM Z-Leu-Arg-AMC as substrate; cited from earlier work.
A further data set relates to rapidly growing rabbits. Nature of the data set: Rabbit Schenk assay: distal femoral BMD by ex vivo DXA and histology after 10 days' treatment. It is filed as in vivo. The following applies: for increase in DFBMD vs vehicle / Distal femur BMD / DFBMD / % BMD gain / DFBMD of representative DXA image: 10 days; for Distal femur BMD / DFBMD: mean ± SEM; for DFBMD: dose-ranging study; for % BMD gain: vs vehicle; for DFBMD of representative DXA image: single representative femur. How it is done:
To characterize the dose of ALN required to show increases in DFBMD, dose-ranging studies were conducted using ALN, administered at doses of 0, 50, 100, 200, and 500 μg/kg (SC, once daily). Seven-week-old rabbits were weight-randomized into groups (n = 8-11 per group). ALN was prepared in deionized water and pH adjusted to 7.2. The injection volume was 0.3 mL per rabbit. Rabbits were treated daily for 10 consecutive days. Rabbits were reweighed on Day 6 and dosing volume was adjusted accordingly. At necropsy, the right femur was excised and stored in 70% ethanol.
Rabbits were treated once daily by oral gavage for 10 consecutive days with vehicle (1% carboxymethylcellulose or 0.5%/0.2% carboxymethylcellulose/SDS), CatK inhibitors, or ALN (100 μg/kg, SC). Several studies were conducted, with each study including vehicle (n = 11–14), multiple dose levels of a CatK inhibitor (n = 13–14 per group), and ALN (n = 8–9). On Day 1, two rabbits from each group receiving CatK inhibitors were bled via the central ear artery (0.5 mL each) at 0, 0.25, 1, 3, 6, 8, and 24 h after dosing. Plasma concentrations of CatK inhibitors were determined in all samples. On Day 11, rabbits were euthanized. Femurs were removed and stored in 70% ethanol for BMD analysis.
Whole right femurs with muscles removed, were immersed in two inches of water in an acrylic box, and positioned with both distal condyles resting on the bottom of the box. The distal 5 cm of the femur was scanned using small animal software in high resolution mode on a Hologic QDR 4500 fan-beam bone densitometer (DXA; Hologic, Inc., Waltham, MA, USA). The distal 3 cm of the femur was analyzed. A region of interest (ROI) beginning one line distal to the distal edge of the femur and centered 70 lines wide and extending 60 lines proximally in the long axis of the bone was applied. Bone mineral content (BMC) and bone area (BAr) were output by DXA software. BMD was calculated as BMC/BAr.
Following ex vivo DXA scanning, the distal one-third of the femur was cut mid-sagitally and then dehydrated, without prior decalcification, in increasing concentrations of ethanol. The right portion was embedded in 80% methylmethacrylate/20% dibutyl phthalate. Parasagittal sections (6 μm) were cut on a Reichert-Jung Polycut sledge microtome (Nussloch, Germany) and mounted on glass slides. A Masson’s trichrome stain was performed to view calcified tissue.

Details of data set [1]: method as in PMID 16302795, PMID 18226527. The following applies: rabbit, cited from earlier work; for Cmin / AUC / Cmax: oral; for Cmin: trough at 24 h.
Data set [2] concerns rabbit osteoclasts. Set-up: method as in PMID 16302795, PMID 18226527. The following applies: three-day incubation, CTx-I release; read-out: IC50 Rabbit bone resorption assay; cited from earlier work.
Data set [3] relates to rabbit osteoclasts. Briefly: In vitro bone resorption assay, rabbit osteoclasts on bovine bone slices, CTx-I release. It is filed as cell-based. The method, then:
The bone resorption assay is a functional in vitro assay that measures Type-I collagen degradation after a three-day incubation of rabbit osteoclasts cultured on bovine bone with varying concentrations of test compound, as previously described. Briefly, long bones isolated from a 10-day-old NZW rabbit were finely minced in alpha-minimal essential medium (α-MEM) (Gibco BRL; Gaithersburg, MD, USA) containing penicillin/streptomycin, pH 7.1 to obtain a cell suspension and 1 × 10^6 cells were seeded onto each 6 mm diameter × 0.22 mm thick bovine bone slice in the same medium containing 2% fetal bovine serum (FBS). After 4 h, the medium was replaced with α-MEM, 2% FBS, 1,25(OH)2D3 10 nM, and test compounds. The cultures were incubated for three days at 37°C in 5% CO2. C-telopeptide of Type-I collagen (CTx-I) released into the medium was measured by the CROSSLAPS Elisa assay (Osteometer Biotech, Herlev, Denmark).

Another data set relates to growing rats. The following applies: cited from earlier work; for trabecular bone volume in the proximal tibial metaphysis vs untreated rats: growing rats, ten days.
A further data set deals with weanling rats. The following applies: six weeks of once-weekly treatment; cited from earlier work.
A further data set deals with rat CatK. Set-up: method as in PMID 19453281. The note with it: cited from earlier work.
The next data set deals with human CatK. Set-up: method as in PMID 19453281. The note with it: cited from earlier work.
The next data set deals with mouse CatK. Also on record: method as in PMID 19453281. The note with it: cited from earlier work.
[4] abbreviates: printed in the 3 mg/kg dose row.
[5] abbreviates: printed in the 10 mg/kg dose row.

Where two headings read alike, the source gives them in different places.

As for `CN1CCN(c2nc(-c3ccc(C(=O)NC4(C(=O)NCC#N)CCCCC4)cc3)cs2)CC1` [Compound L-006235], the values for the IC50 with rabbit CatK and in the data set with rabbit osteoclasts [2] were 0.5 nM and 5 ± 1 nM, respectively. Also, the “increase in DFBMD vs vehicle” value is 7% in the data set on rapidly growing rabbits (1 mg/kg oral once daily), 11% with rapidly growing rabbits (3 mg/kg oral once daily) and 15% in the data set on rapidly growing rabbits (10 mg/kg oral once daily). Further, the entries for the “Distal femur BMD” value in the data set with rapidly growing rabbits (1 mg/kg oral once daily), with rapidly growing rabbits (3 mg/kg oral once daily) and with rapidly growing rabbits (10 mg/kg oral once daily) were 281.7 ± 4.9 mg/cm^2, 293.5 ± 2.8 mg/cm^2 and 303.5 ± 5.4 mg/cm^2, respectively. Besides, the Cl in data set [1] (1 mg/kg dose), in [1] (setting [4]) and in data set [1] (setting [5]) was 113 mL/min/kg throughout. The Cmin in data set [1] (1 mg/kg, LOD ~ 1 nM) is on record as 9 nM; in data set [1] (3 mg/kg) it was 15 nM; in data set [1] (10 mg/kg), 8 nM. The AUC is 0.3 μm*hr in data set [1] (1 mg/kg), 1.0 μm*hr in [1] (3 mg/kg) and 5.0 μm*hr in data set [1] (10 mg/kg). The Cmax in data set [1] (1 mg/kg) is 74 nM; in data set [1] (3 mg/kg), 337 nM; in data set [1] (10 mg/kg), 2440 nM. Further, the “fold more potent in the bone resorption assay than L-833905” value (from here on “fold more potent”) in the data set on rabbit osteoclasts [3] was “approximately 30 fold”.
For the compound `CC(C)C[C@H](N[C@@H](c1ccc(-c2ccc(S(C)(=O)=O)cc2)cc1)C(F)(F)F)C(=O)NCC#N` [Compound L-873724], the results for the IC50 in the data set on rabbit CatK and with rabbit osteoclasts [2] were 0.8 nM and 13 ± 1 nM, respectively. Also, the “Distal femur BMD” value with rapidly growing rabbits (1 mg/kg oral once daily) is reported as 301.2 ± 3.7 mg/cm^2; in the data set with rapidly growing rabbits (3 mg/kg oral once daily), 310.5 ± 6.5 mg/cm^2; in the data set with rapidly growing rabbits (10 mg/kg oral once daily), 327.7 ± 7.5 mg/cm^2. The entries for the “increase in DFBMD vs vehicle” value in the data set with rapidly growing rabbits (3 mg/kg oral once daily) and with rapidly growing rabbits (10 mg/kg oral once daily) were 9% and 15%, respectively. In addition, the Cl in data set [1] (1 mg/kg dose), in data set [1] (setting [4]) and in data set [1] (setting [5]) was 26 mL/min/kg each time. The Cmin result in data set [1] (1 mg/kg, LOD ~ 1 nM) is “<LOD*”; in data set [1] (3 mg/kg), 28 nM; in data set [1] (10 mg/kg), 32 nM. Also, the AUC in data set [1] (1 mg/kg) was 0.5 μm*hr; in data set [1] (3 mg/kg) it was 3.1 μm*hr; in data set [1] (10 mg/kg), 7.8 μm*hr. Further, the Cmax in data set [1] (1 mg/kg) was 78 nM; in data set [1] (3 mg/kg) it was 490 nM; in [1] (10 mg/kg), 1370 nM. Also, the “fold more potent” value with rabbit osteoclasts [3] is recorded as “approximately 30 fold”.
On to `CC(C)C[C@@H](C(=O)NCC#N)c1cccc(-c2ccc(N3CCNCC3)cc2)c1` [Compound L-833905, (R)-N-(cyanomethyl)-4-methyl-2-(4′-(piperazin-1-yl)-[1,1′-biphenyl]-3-yl)pentanamide], for which the IC50 in the data set on rabbit CatK was 33 ± 2 nM. For the same compound, in the data set with rapidly growing rabbits (10 mg/kg oral once daily), the “increase in DFBMD vs vehicle” value is on record as 3% and the “Distal femur BMD” value worked out at 282.5 ± 5.5 mg/cm^2. In addition, in the data set with rapidly growing rabbits (30 mg/kg oral once daily), the “increase in DFBMD vs vehicle” value turned out to be 10% and the “Distal femur BMD” value came to 301.8 ± 4.9 mg/cm^2. In addition, in data set [1] (10 mg/kg), the Cmin is recorded as 29 nM, the AUC is recorded as 1.9 μm*hr and the Cmax was 163 nM. Also, in [1] (30 mg/kg), the Cmin is 60 nM, the AUC is given as 6.1 μm*hr and the Cmax is 651 nM. The IC50 in the data set with rabbit osteoclasts [2] was 149 ± 20 nM. Besides, in the data set on rabbit osteoclasts [3] (from the EIA and functional cell-based assay), the “fold less potent inhibitor of CatK than L-006235, L-873724 and ODN” value was 6–30 fold.
Turning to `CC(O)(P(=O)(O)O)P(=O)(O)O` [etidronate], the “trabecular bone volume in the proximal tibial metaphysis vs untreated rats” value in the data set on growing rats was “higher trabecular bone volume”.
Regarding `O=P(O)(O)C(Cl)(Cl)P(=O)(O)O` [clodronate], the “trabecular bone volume in the proximal tibial metaphysis vs untreated rats” value in the data set with growing rats is “higher trabecular bone volume”.
Take `NCCCC(O)(P(=O)(O)O)P(=O)(O)O` [ALN, alendronate, reference compound]: the “distal femoral metaphyseal BMD” value with weanling rats was “increase in distal femoral metaphyseal BMD”. Also, the “histology of distal femoral metaphysis compared to vehicle” value in the data set on rapidly growing rabbits (10 days' treatment, Masson's trichrome) was “increased retention of both calcified cartilage and bone tissue”. Further, the DFBMD in the data set with rapidly growing rabbits (ALN 50 μg/kg SC once daily) was 277.8 ± 8.4 mg/cm^2; with rapidly growing rabbits (ALN 100 μg/kg SC once daily), 313.7 ± 3.9 mg/cm^2; with rapidly growing rabbits (ALN 200 μg/kg SC once daily) it was 281.7 ± 6.4 mg/cm^2; with rapidly growing rabbits (ALN 500 μg/kg SC once daily), 291.2 ± 9.4 mg/cm^2. In addition, the “% BMD gain” value in the data set with rapidly growing rabbits (ALN 50 μg/kg/day SC) was determined as 15%; with rapidly growing rabbits (ALN 100 μg/kg/day SC) it was 16%; in the data set on rapidly growing rabbits (ALN 200 μg/kg/day SC) it was 16%; in the data set with rapidly growing rabbits (ALN 500 μg/kg/day SC) it was 21%. Further, the entries for the “Distal femur BMD” value in the data set with rapidly growing rabbits (ALN 100 μg/kg SC positive control in the L-006235 study), with rapidly growing rabbits (ALN 100 μg/kg SC positive control in the L-833905 study) and in the data set with rapidly growing rabbits (ALN 100 μg/kg SC positive control in the L-873724 study) were 300.5 ± 4.6 mg/cm^2, 314.0 ± 9.1 mg/cm^2 and 352.8 ± 9.4 mg/cm^2, respectively. Moreover, the “DFBMD of representative DXA image” value in the data set on rapidly growing rabbits (ALN 100 μg/kg/day) is listed as 361 mg/cm^2. Also, the trabecular bone volume entry with growing rats (seven days SC 0.010 mg/kg/d) is on record as “increased trabecular bone volume”.
In the case of `CC(C)(F)C[C@H](N[C@@H](c1ccc(-c2ccc(S(C)(=O)=O)cc2)cc1)C(F)(F)F)C(=O)NC1(C#N)CC1` [ODN, odanacatib], the IC50 in the data set on rabbit CatK was 1 nM; in the data set with rat CatK, 112 nM; with rabbit osteoclasts [2], 23 ± 6 nM; with human CatK, 0.2 nM; with mouse CatK, 108 nM. In addition, the “fold less potent versus rat CatK than versus human and rabbit CatK” value with rat CatK was “more than 500 fold”. For the same compound, the “increase in DFBMD vs vehicle” value in the data set with rapidly growing rabbits (0.3 mg/kg oral once daily) is listed as 7%; in the data set on rapidly growing rabbits (1 mg/kg oral once daily), 11%; in the data set with rapidly growing rabbits (3 mg/kg oral once daily), 19%. Also, the “DFBMD of representative DXA image” value in the data set with rapidly growing rabbits (ODN 3 mg/kg) came out at 388 mg/cm^2. Besides, the Cl in data set [1] (1 mg/kg dose) and in [1] (printed in the 0.3 mg/kg dose row) was 6 mL/min/kg throughout. Moreover, the results for the AUC in data set [1] (0.3 mg/kg), in data set [1] (1 mg/kg) and in [1] (3 mg/kg) were 0.7 μm*hr, 2.2 μm*hr and 4.1 μm*hr, respectively. The Cmin in [1] (1 mg/kg, LOD ~ 1 nM) is given as 37 nM; in data set [1] (3 mg/kg), 88 nM. Besides, the Cmax was 130 nM in data set [1] (1 mg/kg) and 270 nM in data set [1] (3 mg/kg). Also, the “fold less potent versus mouse CatK than versus human and rabbit CatK” value in the data set on mouse CatK is reported as “more than 500 fold”. For the same compound, the “fold more potent” value in the data set with rabbit osteoclasts [3] is “approximately 30 fold”.
